The text below walks through data of patent US8222419B2, “Oxepin derivative” (Nippon Zoki Pharmaceutical Co., Ltd., priority 2006, dated 2012).

A word on the melting point: it is the temperature, or range, at which the solid turns liquid.

Data set [1] deals with histamine-induced vascular hyperpermeability. As to the kind of experiment: Rat histamine-induced vascular hyperpermeability reaction (in vivo antihistamine action). The settings on record: SD male rat, oral administration 1 hour before intracutaneous histamine (20 μg/location), Evans Blue leakage after 30 minutes. As for the experimental part:
Rat Histamine-Induced Vascular Hyperpermeability Reaction (in Vivo Antihistamine Action)
An SD male rat (SPF) of 180 g in weight was previously fed for one week or more by allowing the rat to take a solid feed and tap water ad libitum, under the environment setting of a temperature of 22° C., humidity of 55% and an artificial illumination of 12 hours a day (light phase 8 am to 8 pm), and the rat was fasted overnight to be used for the experiment. Histamine-dihydrochloride (hereinafter referred to as histamine) and Evans Blue were used by dissolving each in physiological saline upon use. A substance to be tested was dissolved in water for injection or suspended in 0.5% carboxymethyl cellulose sodium, and the rat was orally administered with the solution or suspension (dose volume: 5 mL/kg body weight). After 1 hour from the administration, the physiological saline and the histamine solution were each intracutaneously injected to two locations (20 μg/0.05 ml/location) each on a back part of the rat of which hair was sheared with an electric clipper while anesthetizing with an ether. A 0.5% Evans Blue-containing physiological saline was injected intravenously to the tail (1 mL/200 g body weight) of the rat immediately before the intracutaneous injection of the histamine.
After 30 minutes, the animal was decapitated, and allowed to bleed lethally, and the skin was removed to measure an amount of leaked pigment in the blue-stained portion. The measurement of the amount of leaked pigment was carried out as follows. Skins of the pigment leaking site were cut out at two locations, 1 mL of a 2 mol/L aqueous potassium hydroxide solution was added thereto in a test tube, and the test tube was allowed to stand overnight at 37° C. to dissolve. Thereafter, 6 mL of a 1:3 mixed solution of 0.67 mol/L phosphoric acid and acetone was added to the solution, and the mixture was vigorously shaken for 10 minutes. Thereafter, the mixture was filtered, and the absorbance of the filtrate at 620 nm was measured. The absorbance obtained from the two locations of the sites injected with physiological saline, obtained as blank value, was used for a compensation. The amount of leaked pigment was calculated from the calibration curve of Evans Blue at 620 nm.

Data set [2] addresses T1, H1 receptor (Mus musculus, UniProt P70174).
T1 construct: The excised brain tissue was homogenized with Polytron; from tissue; host or cells: entire brain except cerebellum and medulla oblongata, homogenate
As to the kind of experiment: Murine intracranial H1 receptor content (ex vivo), 3H-pyrilamine binding in brain homogenate after oral dosing. The settings on record: for ID50 (mg/kg)/ED50 (mg/kg): ID50 of intracranial receptor binding test (Table 7) divided by ED50 of histamine-induced vascular hyperpermeability test (Table 6); for ED50: mouse.

Setting [3] is: oral administration, brain excised after 1 hour, 3H-pyrilamine 2 nmol/L binding to brain homogenate, read-out: ID50 (the source's name).

Where two headings read alike, the source gives them in different places.

T1 sequence (P70174 whole entry): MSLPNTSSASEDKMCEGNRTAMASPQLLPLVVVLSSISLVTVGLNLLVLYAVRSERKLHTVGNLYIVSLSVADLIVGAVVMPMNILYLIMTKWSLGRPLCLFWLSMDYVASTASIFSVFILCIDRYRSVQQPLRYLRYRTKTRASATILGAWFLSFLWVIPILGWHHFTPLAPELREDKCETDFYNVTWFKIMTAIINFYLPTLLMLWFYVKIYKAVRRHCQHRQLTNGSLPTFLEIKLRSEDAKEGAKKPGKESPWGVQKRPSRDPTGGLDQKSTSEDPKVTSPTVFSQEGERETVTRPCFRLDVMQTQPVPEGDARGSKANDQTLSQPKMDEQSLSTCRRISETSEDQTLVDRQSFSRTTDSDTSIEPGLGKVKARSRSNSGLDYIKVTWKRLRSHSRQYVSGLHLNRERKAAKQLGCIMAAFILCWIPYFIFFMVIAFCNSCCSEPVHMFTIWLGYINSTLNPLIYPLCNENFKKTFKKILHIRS

Turning to `CN1CCC(=C2c3ccccc3COc3ccc(CN)cc32)CC1.Cl.Cl`, the melting point was 140 °C (dec.).

On to `CCOC(=O)c1ccc2c(c1)C(=C1CCN(C)CC1)c1ccccc1CO2.Cl`, for which the melting point was 270 °C (dec.).

Turning to `CN1CCC(=C2c3ccccc3COc3ccc(C=CCO)cc32)CC1.Cl`, the melting point was 118 °C (dec.).

Regarding `COC(=O)C=Cc1ccc2c(c1)C(=C1CCN(C)CC1)c1ccccc1CO2.Cl`, the melting point is 244 °C (dec.).

With `CN1CCC(=C2c3ccccc3COc3ccc(C(=O)O)cc32)CC1` [Compound 1, 11-(1-Methylpiperidin-4-ylidene)-6,11-dihydrodibenz[b,e]oxepin-2-carboxylic acid], the results for the ED50 in data set [1] and in data set [2] (setting [3]) were 0.046 mg/kg and 1.25 mg/kg, respectively. The “ID50 (mg/kg)/ED50 (mg/kg)” value in data set [2] is 27.2. Regarding `CCOC(=O)CNC(=O)c1ccc2c(c1)C(=C1CCN(C)CC1)c1ccccc1CO2` [Compound 3, Ethyl {[11-(1-methylpiperidin-4-ylidene)-6,11-dihydrodibenz[b,e]oxepin-2-carbonyl]amino}acetate], the melting point was 175 to 178 °C. Consider `CN1CCC(=C2c3ccccc3COc3ccc(Br)cc32)CC1` [Compound 4, 4-(2-Bromo-6H-dibenz[b,e]oxepin-11-ylidene)-1-methylpiperidine], for which the melting point lay within 131 to 132 °C. For the molecule `CN1CCC(=C2c3ccccc3COc3ccc(C=CC(=O)O)cc32)CC1` [Compound 7, 3-[11-(1-Methylpiperidin-4-ylidene)-6,11-dihydrodibenz[b,e]oxepin-2-yl]acrylic acid], the melting point is 145 °C (dec.). Also, the ED50 in data set [1] worked out at 0.3 mg/kg. The “ID50 (mg/kg)/ED50 (mg/kg)” value in data set [2] is 4.4. In addition, in data set [2] (setting [3]), the ED50 was 1.32 mg/kg. As for `CN1CCC(=C2c3ccccc3COc3ccc(-c4nn[nH]n4)cc32)CC1` [Compound 8, 1-Methyl-4-[2-(2H-tetrazol-5-yl)-6H-dibenz[b,e]oxepin-11-ylidene]piperidine], the melting point is 225 °C (dec.). Molecule `CN1CCC(=C2c3ccccc3COc3ccc(CNC(=O)OC(C)(C)C)cc32)CC1` [Compound 9, tert-Butyl [11-(1-methylpiperidin-4-ylidene)-6,11-dihydrodibenz[b,e]oxepin-2-ylmethyl]carbamate] gave a melting point of 145 to 148 °C.

In turn, `CN1CCC(=C2c3ccccc3COc3cc(Br)ccc32)CC1` [Compound 12, 4-(3-Bromo-6H-dibenz[b,e]oxepin-11-ylidene)-1-methylpiperidine] gave a melting point of 127 to 128 °C. Same read-out and setting: to `CN1CCC(=C2c3ccccc3COc3cc(C#N)ccc32)CC1` [Compound 13, 11-(1-Methylpiperidin-4-ylidene)-6,11-dihydrodibenz[b,e]oxepin-3-carbonitrile] belongs 175 to 176 °C; to `CCOC(=O)NCc1ccc2c(c1)C(=C1CCN(C)CC1)c1ccccc1CO2` [Compound 14, Ethyl [11-(1-methylpiperidin-4-ylidene)-6,11-dihydrodibenz[b,e]oxepin-2-ylmethyl]carbamate], 135 to 136 °C. As to `CC(=O)NCc1ccc2c(c1)C(=C1CCN(C)CC1)c1ccccc1CO2` [Compound 15, N-[11-(1-Methylpiperidin-4-ylidene)-6,11-dihydrodibenz[b,e]oxepin-2-ylmethyl]acetamide], the melting point was 195 to 196 °C. Same read-out and setting: next, `Cc1ccc2c(c1)C(=C1CCN(C)CC1)c1ccccc1CO2` [Compound 16, 1-Methyl-4-(2-methyl-6H-dibenz[b,e]oxepin-11-ylidene)-piperidine]: 133 to 134 °C; `CN1CCC(=C2c3ccccc3COc3cc(C(=O)O)ccc32)CC1` [Compound 18, 11-(1-Methylpiperidin-4-ylidene)-6,11-dihydrodibenz[b,e]oxepin-3-carboxylic acid]: 208 to 212 °C. `CN1CCC(=C2c3ccccc3COc3ccc(C(=O)NCCO)cc32)CC1` [Compound 19, N-(2-Hydroxyethyl)-11-(1-methylpiperidin-4-ylidene)-6,11-dihydrodibenz[b,e]oxepin-2-carboxamide] registered a melting point of 234 to 236 °C. As to `CN1CCC(=C2c3ccccc3COc3ccc(CNC(=O)c4ccccc4)cc32)CC1` [Compound 20, N-[11-(1-Methylpiperidin-4-ylidene)-6,11-dihydrodibenz[b,e]oxepin-2-ylmethyl]benzamide], the melting point lay in the range of 218 to 219 °C. The same measure, in the same setting: to `CN1CCC(=C2c3ccccc3COc3ccc(CO)cc32)CC1` [Compound 21, [11-(1-Methylpiperidin-4-ylidene)-6,11-dihydrodibenz[b,e]oxepin-2-yl]methanol] belongs 140 to 143 °C. The molecule `CN1CCC(=C2c3ccccc3COc3ccc(C=O)cc32)CC1` [Compound 23, 11-(1-Methylpiperidin-4-ylidene)-6,11-dihydrodibenz[b,e]oxepin-2-carboaldehyde] had a melting point of 157 to 160 °C. As for `CN1CCC(=C2c3ccccc3COc3ccc(CNC(=O)CCC(=O)O)cc32)CC1` [Compound 26, N-[11-(1-Methylpiperidin-4-ylidene)-6,11-dihydrodibenz[b,e]oxepin-2-ylmethyl]succinamic acid], the melting point was 144 °C (dec.). `CCOC(=O)CCC(=O)NCc1ccc2c(c1)C(=C1CCN(C)CC1)c1ccccc1CO2` [Compound 27, Ethyl N-[11-(1-methylpiperidin-4-ylidene)-6,11-dihydrodibenz[b,e]oxepin-2-ylmethyl]succinamate] gave a melting point of 150 to 152 °C. Same read-out and setting: next, `CN1CCC(=C2c3cc(C(=O)O)ccc3COc3ccccc32)CC1` [Compound 28, 11-(1-Methylpiperidin-4-ylidene)-6,11-dihydrodibenz[b,e]oxepin-9-carboxylic acid]: 251 °C (dec.). Regarding `CCOC(=O)c1ccc2c(c1)C(=C1CCN(C)CC1)c1ccccc1OC2` [Compound 29, Ethyl 11-(1-methylpiperidin-4-ylidene)-6,11-dihydrodibenz[b,e]oxepin-9-carboxylate], the melting point is 124 °C (dec.). The same measure, in the same setting: to `CCOC(=O)C=Cc1cccc2c1OCc1ccccc1C2=C1CCN(C)CC1` [Compound 31, Ethyl 3-[11-(1-methylpiperidin-4-ylidene)-6,11-dihydrodibenz[b,e]oxepin-4-yl]acrylate] belongs 126 to 127 °C; to `CN1CCC(=C2c3ccccc3COc3c(C=CC(=O)O)cccc32)CC1` [Compound 32, 3-[11-(1-Methylpiperidin-4-ylidene)-6,11-dihydrodibenz[b,e]oxepin-4-yl]acrylic acid], 188 °C (dec.); to `CN1CCC(=C2c3ccc(C(=O)O)cc3COc3ccccc32)CC1` [Compound 33, 11-(1-Methylpiperidin-4-ylidene)-6,11-dihydrodibenz[b,e]oxepin-8-carboxylic acid], 210 °C (dec.). On the same count and under the same terms, to `CN1CCC(=C2c3ccccc3COc3c(C#N)cccc32)CC1` [Compound 34, 11-(1-Methylpiperidin-4-ylidene)-6,11-dihydrodibenz[b,e]oxepin-4-carbonitrile] belongs 175 to 178 °C. On to `CCOC(=O)C=Cc1ccc2c(c1)OCc1ccccc1C2=C1CCN(C)CC1` [Compound 35, Ethyl 3-[11-(1-methylpiperidin-4-ylidene)-6,11-dihydrodibenz[b,e]oxepin-3-yl]acrylate], for which the melting point is 173 to 175 °C. Turning to `CCOC(=O)c1cccc2c1OCc1ccccc1C2=C1CCN(C)CC1` [Compound 36, Ethyl 11-(1-methylpiperidin-4-ylidene)-6,11-dihydrodibenz[b,e]oxepin-4-carboxylate], the melting point was 124 °C (dec.). As to `CN1CCC(=C2c3ccccc3COc3c(C(=O)O)cccc32)CC1` [Compound 37, 11-(1-Methylpiperidin-4-ylidene)-6,11-dihydrodibenz[b,e]oxepin-4-carboxylic acid], the melting point is 233 °C (dec.). For the molecule `CN1CCC(=C2c3ccccc3COc3ccc(CCC(=O)O)cc32)CC1.Cl` [Compound 43, 3-[11-(1-Methylpiperidin-4-ylidene)-6,11-dihydrodibenz[b,e]oxepin-2-yl]propionate hydrochloride], the ED50 in data set [1] is 0.1 mg/kg; in data set [2] (po, 1 h, read-out: ID50) it was below 2 mg/kg. Also, in data set [2], the “ID50 (mg/kg)/ED50 (mg/kg)” value was above 20.0.

Turning to `CN1CCC(=C2c3ccccc3CC(=O)c3sccc32)CC1` [Ketotifen, reference compound], the ED50 in data set [1] worked out at 0.54 mg/kg.
